According to patent publication US20090227619A1, “Harmine derivatives, intermediates used in their preparations, preparation processes and use therefo” (priority 2003, published 2009):
Like-named read-outs stand apart in the source and are kept apart here.

Key:
NIH3T3 = assay: In vitro cytotoxicity, IC50 by MTT method, NIH3T3; type: cell-based
Method: (§1) Culture medium powder RPMI1640 was dissolved in a proper amount of tri-distilled water according to the instruction of the product. […] It was the basic culture solution. The complete culture solution was added with FBS having a final concentration of 10%, 100 U/ml penicillin and 100 µg/ml streptomycin. The solution was fully stirred by a magnetic blender, and the pH of the solution was adjusted to 6.8-7.0. The volume was kept constant. After being filtered and disinfected, the solution was kept into several containers which were sealed and stored at 4° C.
(§2) The cells were placed in a culture dish followed by the addition of complete culture liquid RPMI1640 and then cultured in a incubator comprising 5% CO2 at 37° C. In the exponential growth phase, the cells grew vigorously. If the culture liquid became yellow, the liquid should be replaced instantly.
(§3) The cells, at a concentration of 10^5/ml, were inoculated at a 96-pore culture plate. In each pore, 100 μl cells were inoculated. The cells were placed in a CO2 incubator until the cells were in the logarithmic growth phase. The samples to be tested were added according to the preset concentration gradient. For each gradient, the test was conducted at least three times. An equivalent amount of solvent for dissolving the samples was added in the control group. After 48 h of culture, each pore was added 20 μl MTT (5 mg/ml). The cells were cultured at 37° C. for 4 h. After the supernatant was carefully removed, 100 μl DMSO was added in each pore. The plate was agitated for about 10 minutes such that the precipitates were dissolved. After that, OD value was identified with a Microplate Reader at the wavelength of 490 nm. The survival rate of the cells at various concentrations was calculated according to the following formula:
(§4) Survival rate %=average OD value of the sample group/average OD value of the control group×100%
(§5) Plots of log survival rate of the cells vs. concentration of the medicament were constructed, and the IC50 value of each sample was calculated according to graphing methods.

PLA-801 = assay: In vitro cytotoxicity, IC50 by MTT method, PLA-801; type: cell-based
Method: as §1, §2, §3, §4, §5

S180 sarcoma = conditions: S180 sarcoma; for Body weight of the animals, beginning, First time / Body weight of the animals, end, First time / Inhibition rate, First time / Weight of the tumor X ± SD, First time / Body weight of the animals, beginning, Second time / Body weight of the animals, end, Second time / Inhibition rate, Second time: ip × 10qd
From the text: There was one group of 8 to 10 mice C57BL/6 and Kunming mice for the anti-tumor tests and two groups of mice for negative control.
(3) Sources of tumors: Lewis lung cancer cells and S180 sarcoma in mice, which were sub-cultured and maintained by Pharmacological Center of Shanghai Pharmaceutical Industrial Research Institute.
All samples were weighed and added a small amount of Tween-80 to facilitate dissolution during the experiment, and then 0.5% CMC-Na solution was gradually added to achieve the desired concentration. The volume for experiment was 0.5 ml/20 g mouse.
The medicaments were intraperitoneally administered once a day continuously for 10 days.
For the negative control group, a vehicle of the same volume was intraperitoneally administered once a day continuously for 10 days. For the positive control group, CTX was administered in the dosage of 30 mg/kg once a day continuously for 7 days.
In vivo anti-tumor subcutaneous vaccination in the axilla was employed. Wildly grown tumor source was taken under sterile conditions to form a cell suspension of about 1×10^7 ml by homogenization method. For a corresponding mouse host, the suspension was injected in the axilla in an amount of 0.2 ml/mouse. The next day, the medicaments were administered according to the design of the tests. About three weeks later, all the groups of animals were executed. The tumors were taken from the animals and weighed. The inhibition rate of tumors was calculated according to the following formula:
T: average tumor weight of treated group; C: average tumor weight of negative control group.

Lovo = assay: In vitro cytotoxicity, IC50 by MTT method, Lovo; type: cell-based
Method: as §1, §2, §3, §4, §5

HepG2 = assay: In vitro cytotoxicity, IC50 by MTT method, HepG2; type: cell-based, human
Method: as §1, §2, §3, §4, §5

Hela = assay: In vitro cytotoxicity, IC50 by MTT method, Hela; type: cell-based
Method: as §1, §2, §3, §4, §5

BGC-823 = assay: In vitro cytotoxicity, IC50 by MTT method, BGC-823; type: cell-based
Method: as §1, §2, §3, §4, §5

Lewis lung cancer = conditions: Lewis lung cancer; for Body weight of the animals, end, First time / Body weight of the animals, end, Second time: ip × 10qd;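 for all read-outs here: mice implanted subcutaneously in the axilla with Lewis lung tumor cells, treated starting the following day, killed roughly three weeks after implantation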
Bel-7402 = assay: In vitro cytotoxicity, IC50 by MTT method, Bel-7402; type: cell-based
Method: as §1, §2, §3, §4, §5

[1] = Mus musculus, NIH3T3, MTT, read-out: IC50
[2] = Homo sapiens, Lovo, MTT, read-out: IC50
[3] = Homo sapiens, HepG2, MTT, read-out: IC50
[4] = Homo sapiens, Hela, MTT, read-out: IC50
[5] = Homo sapiens, BGC-823, BGC823, MTT, read-out: IC50
[6] = Homo sapiens, Bel-7402, BeI7402, MTT, read-out: IC50
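Throughout, for LD50: acute toxicity in Kunming mice grouped by sex, one intraperitoneal dose at five graded levels in Tween-80 plus 0.5% CMC-Na, deaths monitored over two weeks.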

Method for Kunming mice: Five grades of dosages for each sample according to the results of the preliminary test, each dosage being 0.8 larger than the previous one
During the experiment, each sample was added a small amount of Tween-80 to facilitate dissolution after the sample was weighed, and then 0.5% CMC-Na solution was gradually added to achieve the desired concentration. The experimental volume was 0.5 ml/20 g mouse.
Single injection via intraperitoneal (i.p.) to different groups mice.
Kunming mice were divided into different groups randomly according to their sex. The medicament was intraperitoneally administered to each group of mice according to the dosage setting. After the administration of the medicaments, mice were observed continuously for the first 2 h for any gross behavioral changes and deaths. Dead animals were dissected and examined for any possible organ damage. […] Conditions of animals died within two week were recorded. After two weeks, all survived animals were sacrificed and checked macroscopically for possible damage to the heart, liver, kidneys and so on. Viscera that had substantive pathological changes were pathologically examined.

## 2,9-dibenzyl-3-ethoxycarbonyl-β-carbolinium bromate [Compound 86]
NIH3T3; NIH3T3 cell strain, read-out: IC50 NIH3T3
  IC50: 20 µM
PLA-801; PLA-801 cell strain, read-out: IC50 PLA-801
  IC50: 10 µM
Kunming mice; 50% male 50% female mice, single i.p.
  LD50: 65.7 mg/kg
Kunming mice; mouse, in vivo, ip
  LD50: 58.2 to 74.1 mg/kg
Kunming mice; summary Table 34, present tests, mice i.p.
  LD50: 65.7
S180 sarcoma; Dosage 10 (mg/ml)
  Body weight of the animals, beginning, First time: 19.3 g
  Body weight of the animals, end, First time: 24.5 g
  Inhibition rate, First time: 31.09%
  Weight of the tumor X ± SD, First time: 1.84 ± 0.16 g
  Body weight of the animals, beginning, Second time: 18.7 g
  Body weight of the animals, end, Second time: 24.9 g
  Inhibition rate, Second time: 28.89%
S180 sarcoma; Dosage 10, ip × 10qd
  Weight of the tumor X ± SD, Second time: 1.92 ± 0.20 g
S180 sarcoma; Dosage 20 (mg/ml)
  Body weight of the animals, beginning, First time: 19.0 g
  Body weight of the animals, end, First time: 23.7 g
  Inhibition rate, First time: 38.95%
  Weight of the tumor X ± SD, First time: 1.63 ± 0.26 g
  Body weight of the animals, beginning, Second time: 18.9 g
  Body weight of the animals, end, Second time: 24.4 g
  Inhibition rate, Second time: 41.11%
S180 sarcoma; Dosage 20, ip × 10qd
  Weight of the tumor X ± SD, Second time: 1.59 ± 0.17 g
S180 sarcoma; comparison table 43, in vivo
  Inhibition rate (%) S180 sarcomata: 41.11%
Lovo; Lovo cell strain, read-out: IC50 Lovo
  IC50: 20 µM
HepG2; HepG2 cell strain, read-out: IC50 HepG2
  IC50: 40 µM
Hela; Hela cell strain, read-out: IC50 Hela
  IC50: 30 µM
BGC-823; BGC823 cell strain, read-out: IC50 BGC823
  IC50: 40 µM
Lewis lung cancer; Dosage 10 (mg/ml)
  Body weight of the animals, end, First time: 24.5 g
  Body weight of the animals, end, Second time: 25.1 g
Lewis lung cancer; Dosage 10, ip × 10qd
  Body weight of the animals, beginning, First time: 20.2 g
  Inhibition rate, First time: 34.98%
  Weight of the tumor X ± SD, First time: 1.58 ± 0.11 g
  Body weight of the animals, beginning, Second time: 19.1 g
  Inhibition rate, Second time: 37.20%
  Weight of the tumor X ± SD, Second time: 1.84 ± 0.17 g
Lewis lung cancer; Dosage 20 (mg/ml)
  Body weight of the animals, end, First time: 25.2 g
  Body weight of the animals, end, Second time: 23.9 g
Lewis lung cancer; Dosage 20, ip × 10qd
  Body weight of the animals, beginning, First time: 20.0 g
  Inhibition rate, First time: 41.56%
  Weight of the tumor X ± SD, First time: 1.42 ± 0.11 g
  Body weight of the animals, beginning, Second time: 18.7 g
  Inhibition rate, Second time: 45.05%
  Weight of the tumor X ± SD, Second time: 1.61 ± 0.17 g
Lewis lung cancer; comparison table 43, in vivo
  Inhibition rate (%) Lewis cancer: 41.56%
Bel-7402; Bel7402 cell strain, read-out: IC50 Bel7402
  IC50: 50 µM

## CCOC(=O)c1cc2c([nH]c3ccccc32)c(CC)n1 [Compound 12, ethyl 1-ethyl-β-carboline-3-carboxylate]
other
  melting point: 209 to 210 °C
NIH3T3; [1]
  IC50: > 3000 µM
PLA-801; PLA-801, MTT, read-out: IC50
  IC50: > 3000 µM
Lovo; [2]
  IC50: 1570 µM
HepG2; [3]
  IC50: > 3000 µM
Hela; [4]
  IC50: > 3000 µM
BGC-823; [5]
  IC50: > 3000 µM
Bel-7402; [6]
  IC50: > 3000 µM

## CCCc1nc(C(=O)OCC)cc2c1[nH]c1ccccc12 [Compound 13, ethyl 1-propyl-β-carboline-3-carboxylate]
other
  melting point: 194 to 195 °C
NIH3T3; [1]
  IC50: 750 µM
PLA-801; PLA-801, MTT, read-out: IC50
  IC50: 670 µM
Lovo; [2]
  IC50: 740 µM
HepG2; [3]
  IC50: 1060 µM
Hela; [4]
  IC50: > 3000 µM
BGC-823; [5]
  IC50: > 3000 µM
Bel-7402; [6]
  IC50: > 3000 µM
